Data as given in ChEMBL document CHEMBL1201862, “PubChem BioAssay data set” (2004).
Calls of active or inactive are those of the source.

Tests used:
[1] = target: Neuropeptide Y receptor type 1 (Homo sapiens, UniProt P25929); assay: NPY-Y1 receptor antagonist potency, dose response, cell-based (AID 1277); format: functional
[2] = target: Neuropeptide Y receptor type 2 (Homo sapiens, UniProt P49146); assay: NPY-Y2 antagonist potency, selectivity check, dose response, counter-screen for NPY-Y1 antagonist project, cell-based (AID 1278); format: functional
Chain of Neuropeptide Y receptor type 2 (P49146 whole entry): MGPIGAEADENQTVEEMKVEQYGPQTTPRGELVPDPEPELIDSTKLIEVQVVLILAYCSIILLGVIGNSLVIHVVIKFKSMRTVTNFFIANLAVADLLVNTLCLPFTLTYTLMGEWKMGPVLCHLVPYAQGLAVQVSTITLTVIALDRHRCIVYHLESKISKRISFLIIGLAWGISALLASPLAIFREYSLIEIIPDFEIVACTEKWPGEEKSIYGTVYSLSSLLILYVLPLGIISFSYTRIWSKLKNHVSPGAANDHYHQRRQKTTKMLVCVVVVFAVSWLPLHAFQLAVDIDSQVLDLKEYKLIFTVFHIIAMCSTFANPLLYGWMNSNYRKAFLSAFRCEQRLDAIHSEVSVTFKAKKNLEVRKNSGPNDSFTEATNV

[3] = inhibitors of firefly luciferase expression or activity, dose response, H4 neuroglioma cells, luminescence (AID 1990); format: functional, cell-based
BJ [4] = assay: cells; format: functional, cell-based; settings: Homo sapiens
Galanin receptor type 2 = Galanin receptor type 2 (Homo sapiens, UniProt O43603); assay: Dose Response cell-based high-throughput screening assay to identify antagonists of galanin receptor 2 (GALR2). [Related pubchem assays: 828, 866 ]; format: functional
Chain of Galanin receptor type 2 (O43603 whole entry): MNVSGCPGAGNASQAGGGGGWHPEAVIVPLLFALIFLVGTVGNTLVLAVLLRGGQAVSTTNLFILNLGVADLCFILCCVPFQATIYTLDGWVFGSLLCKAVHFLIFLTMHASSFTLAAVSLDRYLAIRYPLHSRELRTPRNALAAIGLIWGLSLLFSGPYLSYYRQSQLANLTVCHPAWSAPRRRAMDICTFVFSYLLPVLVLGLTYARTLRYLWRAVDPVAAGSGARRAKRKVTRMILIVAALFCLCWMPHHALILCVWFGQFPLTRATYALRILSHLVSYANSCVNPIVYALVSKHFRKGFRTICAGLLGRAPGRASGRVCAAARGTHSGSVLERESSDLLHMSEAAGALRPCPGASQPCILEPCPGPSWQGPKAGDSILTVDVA

Exodeoxyribonuclease V = target: T1, Exodeoxyribonuclease V (Escherichia coli (strain K12), UniProt P04993+P07648+P08394); assay: E. coli RecBCD inhibitors, dose response, counter-screen for AddAB inhibitor project, absorbance, V66 E. coli, mutant T4 phage (AID 492957); format: functional, cell-based, Escherichia coli str. K-12 substr. MG1655
T1 sequence (P04993 whole entry): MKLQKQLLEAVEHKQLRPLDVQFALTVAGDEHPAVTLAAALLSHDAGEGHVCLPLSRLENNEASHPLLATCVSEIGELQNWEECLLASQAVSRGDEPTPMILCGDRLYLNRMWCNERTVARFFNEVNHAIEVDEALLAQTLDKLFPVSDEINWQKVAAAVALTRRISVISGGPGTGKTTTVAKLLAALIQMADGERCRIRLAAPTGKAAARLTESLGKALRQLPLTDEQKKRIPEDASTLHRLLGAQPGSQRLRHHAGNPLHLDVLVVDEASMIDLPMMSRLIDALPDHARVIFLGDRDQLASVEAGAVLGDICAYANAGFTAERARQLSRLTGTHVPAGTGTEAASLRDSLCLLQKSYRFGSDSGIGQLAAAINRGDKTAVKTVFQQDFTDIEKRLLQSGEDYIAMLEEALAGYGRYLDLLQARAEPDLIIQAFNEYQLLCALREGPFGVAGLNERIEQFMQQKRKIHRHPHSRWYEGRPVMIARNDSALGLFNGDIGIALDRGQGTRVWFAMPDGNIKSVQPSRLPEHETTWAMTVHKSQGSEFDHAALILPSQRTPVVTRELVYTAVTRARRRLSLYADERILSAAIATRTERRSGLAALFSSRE
T1 sequence (P07648 whole entry): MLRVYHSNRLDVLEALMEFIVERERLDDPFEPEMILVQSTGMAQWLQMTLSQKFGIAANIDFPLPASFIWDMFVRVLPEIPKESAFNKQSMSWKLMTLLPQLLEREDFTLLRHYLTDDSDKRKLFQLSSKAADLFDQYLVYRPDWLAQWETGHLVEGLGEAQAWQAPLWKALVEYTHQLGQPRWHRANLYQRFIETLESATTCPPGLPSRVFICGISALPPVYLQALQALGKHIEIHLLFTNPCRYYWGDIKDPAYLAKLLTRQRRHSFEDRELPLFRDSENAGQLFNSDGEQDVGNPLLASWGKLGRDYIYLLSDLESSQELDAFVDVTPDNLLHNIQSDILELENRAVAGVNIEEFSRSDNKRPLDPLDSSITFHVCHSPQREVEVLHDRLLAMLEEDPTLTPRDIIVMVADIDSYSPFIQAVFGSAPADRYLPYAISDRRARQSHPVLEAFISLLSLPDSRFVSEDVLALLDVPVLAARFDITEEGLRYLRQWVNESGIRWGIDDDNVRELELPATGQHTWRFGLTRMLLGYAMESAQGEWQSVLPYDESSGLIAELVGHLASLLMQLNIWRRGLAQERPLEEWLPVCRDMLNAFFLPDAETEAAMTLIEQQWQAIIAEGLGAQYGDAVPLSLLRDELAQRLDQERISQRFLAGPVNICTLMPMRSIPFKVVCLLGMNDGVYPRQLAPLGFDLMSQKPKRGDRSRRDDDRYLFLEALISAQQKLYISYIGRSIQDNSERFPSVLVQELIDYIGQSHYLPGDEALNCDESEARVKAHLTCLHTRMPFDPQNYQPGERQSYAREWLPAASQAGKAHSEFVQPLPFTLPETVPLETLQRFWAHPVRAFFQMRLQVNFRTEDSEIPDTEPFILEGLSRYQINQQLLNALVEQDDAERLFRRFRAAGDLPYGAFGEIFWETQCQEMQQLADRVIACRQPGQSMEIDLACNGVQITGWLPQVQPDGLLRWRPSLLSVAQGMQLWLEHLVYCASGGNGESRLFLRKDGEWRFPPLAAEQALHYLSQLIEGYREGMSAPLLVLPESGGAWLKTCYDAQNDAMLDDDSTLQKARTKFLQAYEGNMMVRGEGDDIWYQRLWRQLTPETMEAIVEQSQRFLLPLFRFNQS
T1 sequence (P08394 whole entry): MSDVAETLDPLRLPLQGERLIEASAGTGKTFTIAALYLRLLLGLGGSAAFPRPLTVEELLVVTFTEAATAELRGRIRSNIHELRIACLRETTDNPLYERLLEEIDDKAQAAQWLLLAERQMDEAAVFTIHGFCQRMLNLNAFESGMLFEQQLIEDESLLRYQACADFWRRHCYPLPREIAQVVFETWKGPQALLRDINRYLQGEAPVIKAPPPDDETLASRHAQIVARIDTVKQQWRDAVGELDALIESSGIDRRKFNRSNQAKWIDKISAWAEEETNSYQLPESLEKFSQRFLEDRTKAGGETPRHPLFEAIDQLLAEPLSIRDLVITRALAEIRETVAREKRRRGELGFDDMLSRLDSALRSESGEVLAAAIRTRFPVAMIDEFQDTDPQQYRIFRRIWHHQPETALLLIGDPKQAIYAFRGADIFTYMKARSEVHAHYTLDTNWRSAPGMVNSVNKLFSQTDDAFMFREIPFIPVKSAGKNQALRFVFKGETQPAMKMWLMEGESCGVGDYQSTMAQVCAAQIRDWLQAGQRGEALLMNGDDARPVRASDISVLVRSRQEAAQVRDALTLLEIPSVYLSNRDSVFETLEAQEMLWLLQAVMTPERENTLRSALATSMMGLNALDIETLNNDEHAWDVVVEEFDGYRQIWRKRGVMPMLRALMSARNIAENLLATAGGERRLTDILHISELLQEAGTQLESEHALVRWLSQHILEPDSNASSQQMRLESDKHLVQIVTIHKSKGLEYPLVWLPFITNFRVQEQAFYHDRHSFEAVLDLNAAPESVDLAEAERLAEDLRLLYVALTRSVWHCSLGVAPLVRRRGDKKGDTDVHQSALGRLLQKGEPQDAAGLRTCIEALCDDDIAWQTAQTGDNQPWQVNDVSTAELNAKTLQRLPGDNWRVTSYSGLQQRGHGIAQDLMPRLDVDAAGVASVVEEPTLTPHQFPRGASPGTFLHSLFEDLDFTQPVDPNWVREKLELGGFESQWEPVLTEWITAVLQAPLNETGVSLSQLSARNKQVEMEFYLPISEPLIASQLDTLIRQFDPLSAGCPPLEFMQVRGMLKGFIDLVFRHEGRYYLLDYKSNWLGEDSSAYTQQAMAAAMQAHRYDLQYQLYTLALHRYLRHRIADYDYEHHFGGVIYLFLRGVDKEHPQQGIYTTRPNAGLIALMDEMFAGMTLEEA

BJ [5] = assay: cytotoxicity toward Ras-transformed BJeLR fibroblasts, dose response, cell-based, alamar blue fluorescence, cherrypicked samples (AID 2631); format: functional; settings: Homo sapiens;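 note: confirmatory dose-response assay in RAS-dependent BJ fibroblasts engineered with TERT, LT and ST, with cytotoxicity read by fluorescence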
BJ [6] = assay: cytotoxicity toward BJ-TERT fibroblasts, dose response, cell-based, RAS-independent, luminescence (AID 1933); format: functional; settings: Homo sapiens
BJ [7] = assay: cytotoxicity toward BJ-TERT-LT-ST fibroblasts, dose response, cell-based, RAS-independent, luminescence (AID 1935); format: functional; settings: Homo sapiens;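 note: BJ fibroblasts immortalized with TERT plus LT and ST oncogenes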
[8] = cytotoxicity toward DRD oncogenic fibroblasts, dose response, cell-based, non-viral oncogenic, luminescence (AID 1934); format: functional; settings: Homo sapiens
[9] = target: Heat shock protein HSP 90-alpha (Homo sapiens, UniProt P07900); format: functional, organism-based
[10] = Luminescence Cell-Based Dose Response HTS to Identify Inhibitors of 5'UTR Stem-Loop Driven Prion Protein mRNA Translation in H4 Neuroglioblastoma Cells. [Related pubchem assays: 1827 (Project Summary), 1813 (Primary HTS)]; format: functional
Danio rerio = assay: In Vivo Angiogenesis Dose-Response Confirmation. [Related pubchem assays: 732 (Assay preceding this confirmatory assay.)]; format: functional, organism-based
[11] = Counterscreen for AddAB inhibitors: absorbance-based bacterial cell-based high throughput dose response assay for inhibitors of bacterial viability. [Related pubchem assays (depositor defined):AID435030, AID449728, AID449731, AID488942, AID488955, AID488956]; format: functional
Nonstructural protein 1 = Nonstructural protein 1 (Influenza A virus, UniProt Q194T2); format: functional, Influenza A virus (A/California/07/2009(H1N1))
Chain of Nonstructural protein 1 (Q194T2 whole entry): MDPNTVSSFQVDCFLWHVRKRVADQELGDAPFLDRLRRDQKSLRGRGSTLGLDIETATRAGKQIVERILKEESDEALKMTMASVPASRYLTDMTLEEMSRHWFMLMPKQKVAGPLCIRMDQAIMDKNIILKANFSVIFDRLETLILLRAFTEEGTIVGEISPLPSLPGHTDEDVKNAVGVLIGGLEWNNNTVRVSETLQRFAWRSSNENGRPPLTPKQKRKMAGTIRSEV

[12] = inhibitors of SNCA 5'UTR-driven reporter translation, confirmation, H4 neuroglioma cells, luminescence (AID 1988); format: functional, cell-based
[13] = NIH-3T3 fibroblast cytotoxicity, dose response, cytotoxicity control, cell-based, fluorescence, Alamar Blue, secondary assay (AID 2327); format: functional;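 note: NIH-3T3 mouse fibroblasts cultured with fluconazole at 8 µg/mL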
Insulin-degrading enzyme = target: T2, Insulin-degrading enzyme (Homo sapiens, UniProt P14735); assay: Dose Response: Fluorescence polarization-based cell-based high throughput dose response assay for inhibitors of insulin-degrading enzyme (IDE). [Related pubchem assays: 434962 (Primary screen (IDE inhibitors in singlicate)), 449730 (Counterscreen (Cytotoxicity in triplicate)), 435028 (Confirmation (IDE inhibitors in triplicate)), 434984 (Summary …; format: functional
T2 sequence (P14735 whole entry): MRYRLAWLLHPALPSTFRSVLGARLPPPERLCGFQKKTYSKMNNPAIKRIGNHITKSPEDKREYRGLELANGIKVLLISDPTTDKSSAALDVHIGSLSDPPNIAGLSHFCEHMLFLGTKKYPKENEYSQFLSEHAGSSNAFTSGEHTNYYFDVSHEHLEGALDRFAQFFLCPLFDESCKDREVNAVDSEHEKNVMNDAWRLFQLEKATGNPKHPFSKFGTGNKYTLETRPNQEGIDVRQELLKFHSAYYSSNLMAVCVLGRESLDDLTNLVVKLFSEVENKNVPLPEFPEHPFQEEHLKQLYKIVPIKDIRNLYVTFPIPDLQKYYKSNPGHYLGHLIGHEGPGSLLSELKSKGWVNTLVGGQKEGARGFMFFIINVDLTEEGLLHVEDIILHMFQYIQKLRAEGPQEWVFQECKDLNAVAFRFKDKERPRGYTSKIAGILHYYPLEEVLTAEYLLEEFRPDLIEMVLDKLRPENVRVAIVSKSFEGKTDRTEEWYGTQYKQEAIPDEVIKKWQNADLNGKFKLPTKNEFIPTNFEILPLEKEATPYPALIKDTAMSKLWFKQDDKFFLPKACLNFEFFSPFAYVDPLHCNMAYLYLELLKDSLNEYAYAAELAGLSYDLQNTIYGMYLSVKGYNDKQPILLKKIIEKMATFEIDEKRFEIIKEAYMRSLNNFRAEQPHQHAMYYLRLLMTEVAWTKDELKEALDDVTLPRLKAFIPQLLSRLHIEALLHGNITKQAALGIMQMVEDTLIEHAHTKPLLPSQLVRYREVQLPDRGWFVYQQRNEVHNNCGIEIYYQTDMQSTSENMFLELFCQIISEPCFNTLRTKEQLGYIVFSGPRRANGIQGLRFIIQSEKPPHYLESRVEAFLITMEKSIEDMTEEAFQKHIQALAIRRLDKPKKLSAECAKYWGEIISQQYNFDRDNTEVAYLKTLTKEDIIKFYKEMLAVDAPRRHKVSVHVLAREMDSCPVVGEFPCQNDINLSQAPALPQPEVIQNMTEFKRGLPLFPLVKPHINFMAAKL

[14] = Counterscreen for IDE inhibitors: Luminescence-based cell-based high throughput dose response assay to identify compounds that are cytotoxic to HEK cells. [Related pubchem assays: 434962 (Primary screen (IDE inhibitors in singlicate)), 449730 (Counterscreen (Cytotoxicity in triplicate)), 435028 (Confirmation (IDE inhibitors in triplicate)) …; format: functional; settings: HEK293
[15] = HEp-2 cell cytotoxicity, dose response, cytotoxicity control for RSV inhibitor project, HTS (AID 2410); format: functional; settings: human respiratory syncytial virus

Chain of Neuropeptide Y receptor type 1 (P25929 whole entry): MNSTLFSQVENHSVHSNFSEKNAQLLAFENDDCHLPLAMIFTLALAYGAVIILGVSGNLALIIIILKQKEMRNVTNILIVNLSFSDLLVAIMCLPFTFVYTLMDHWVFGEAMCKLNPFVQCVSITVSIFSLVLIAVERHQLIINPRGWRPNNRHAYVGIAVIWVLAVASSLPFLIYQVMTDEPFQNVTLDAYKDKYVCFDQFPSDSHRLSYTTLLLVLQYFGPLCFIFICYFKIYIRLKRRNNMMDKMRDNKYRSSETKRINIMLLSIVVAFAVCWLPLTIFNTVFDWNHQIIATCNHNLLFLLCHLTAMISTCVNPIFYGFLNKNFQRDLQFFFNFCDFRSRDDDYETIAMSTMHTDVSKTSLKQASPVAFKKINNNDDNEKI

In the case of `COc1ccc(N(C)S(=O)(=O)c2cccc(C(=O)NC3CCC(C)CC3)c2)cc1` (stereo not given), the IC50 [1] is reported as > 35 µM (not active) and the IC50 [2] is reported as > 35 µM (not active).
With `c1cnc2c(c1)ccc1cccnc12` [PHENANTHROLINE] the EC50 [3] was 6.95 µM (active), the EC50 (BJ [4]) was 8.88 µM (inconclusive) and the IC50 (Galanin receptor type 2) was > 42 µM (not active). The IC50 (Exodeoxyribonuclease V) was 30.5 µM (inactive), the EC50 (BJ [5]) was 6.14 µM (active) and the EC50 (BJ [6]) was 5.03 µM (active). For the same molecule, the EC50 (BJ [7]) was 7.62 µM (inconclusive), the EC50 [8] was 16.4 µM (active) and the AC50 [9] was 7.11 µM (active). For the same molecule, the EC50 [10] was 5.66 µM (active), the IC50 (Danio rerio) was 7.51 µM (active) and the IC50 [11] was 35.2 µM (inactive). For the same molecule, the IC50 (Nonstructural protein 1) was 0.902 µM (active), the EC50 [12] was 7.02 µM (active) and the EC50 [13] was 9.41 µM (inconclusive).
For `Cc1ccc(NC2=NC(=O)/C(=C/c3cn(C)c4ccccc34)S2)cc1C`, the IC50 (Insulin-degrading enzyme) was 18.4 µM (not active), the IC50 [14] was 16.5 µM (not active) and the CC50 [15] was 6.5 µM (active).
